Measured values taken from patent publication US20090118274A1, “MONOCYCLIC AMINOPROPYL TETRAHYDRO-PYRAZOLO-PYRIDINE MODULATORS OF CATHEPSIN S” (priority 2007, published 2009).

Target: T1, Recombinant human cathepsin S (CatS) (Homo sapiens, UniProt P25774)
T1 construct: made in house
Test: Recombinant human cathepsin S (CatS) fluorogenic substrate inhibition assay
Type: biochemical
Conditions: average of results obtained; substrate Z-Valine-Valine-Arginine-AMC 10 μM, pH 5.0; read-out: CatS IC50
Method: Recombinant human cathepsin S (CatS) was expressed in the baculovirus system and purified in one step with a thiopropyl-sepharose column. […] The assay is run in 150 mM sodium acetate pH 5.0 containing 1.5 mM DTT and 150 mM NaCl. […] Measurements are taken every min for 20 min. The rate is calculated from the slope of the increase in fluorescence and the percent inhibition is calculated from this.

T1 sequence (P25774 115-331): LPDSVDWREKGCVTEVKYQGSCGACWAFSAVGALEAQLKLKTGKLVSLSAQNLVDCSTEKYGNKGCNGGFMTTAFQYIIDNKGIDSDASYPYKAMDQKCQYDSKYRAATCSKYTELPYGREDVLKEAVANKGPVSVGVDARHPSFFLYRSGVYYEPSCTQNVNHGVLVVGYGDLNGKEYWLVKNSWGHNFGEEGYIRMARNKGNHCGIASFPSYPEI

| SMILES | IC50 |
| --- | --- |
| CC(C)=CC(=O)NCc1cc(-c2nn(CC(O)CN3CCCC(CN(C)C)C3)c3c2CN(S(C)(=O)=O)CC3)ccc1C(F)(F)F (stereo not shown) [Example 271, 3-Methyl-but-2-enoic acid 5-{1-[3-(3-dimethylaminomethyl-piperidin-1-yl)-2-hydroxy-propyl]-5-methanesulfonyl-4,5,6,7-tetrahydro-1H-pyrazolo[4,3-c]pyridin-3-yl}-2-trifluoromethyl-benzylamide] | 580 nM |
| CS(=O)(=O)N1CCc2c(c(-c3ccc(Cl)c(CC(=O)Nc4ccc(F)cc4)c3)nn2CCCN2CCOCC2)C1 [Example 290, 2-{2-Chloro-5-[5-methanesulfonyl-1-(3-morpholin-4-yl-propyl)-4,5,6,7-tetrahydro-1H-pyrazolo[4,3-c]pyridin-3-yl]-phenyl}-N-(4-fluoro-phenyl)-acetamide] | 1850 nM |
| Cc1ccc(C(=O)NCc2cc(-c3nn(CC(O)CN4CCCC4)c4c3CN(S(C)(=O)=O)CC4)ccc2C(F)(F)F)cc1 (stereo not shown) [Example 214] | 580 nM |
| O=C(NCc1cc(-c2nn(CC(O)CN3CCC4(CCNC4=O)CC3)c3c2CNCC3)ccc1C(F)(F)F)c1ccc(F)cc1 (stereo not shown) [Example 238, 4-Fluoro-N-(5-{1-[2-hydroxy-3-(1-oxo-2,8-diaza-spiro[4.5]dec-8-yl)-propyl]-4,5,6,7-tetrahydro-1H-pyrazolo[4,3-c]pyridin-3-yl}-2-trifluoromethyl-benzyl)-benzamide] | 940 nM |
| CS(=O)(=O)N1CCc2c(c(-c3ccc(C(F)(F)F)c(CNC(=O)c4cccc(F)c4)c3)nn2CC(O)CN2CCCC2)C1 (stereo not shown) [Example 215, 3-Fluoro-N-{5-[1-(2-hydroxy-3-pyrrolidin-1-yl-propyl)-5-methanesulfonyl-4,5,6,7-tetrahydro-1H-pyrazolo[4,3-c]pyridin-3-yl]-2-trifluoromethyl-benzyl}-benzamide] | 580 nM |

These reach a lower IC50. Values come first.

| IC50 | SMILES |
| --- | --- |
| 440 nM | CS(=O)(=O)N1CCc2c(c(-c3ccc(C(F)(F)F)c(CNC(=O)CN4CCOCC4)c3)nn2CCCN2CCC(N3CCCC3=O)CC2)C1 [Example 39, N-[5-(5-Methanesulfonyl-1-{3-[4-(2-oxo-pyrrolidin-1-yl)-piperidin-1-yl]-propyl}-4,5,6,7-tetrahydro-1H-pyrazolo[4,3-c]pyridin-3-yl)-2-trifluoromethyl-benzyl]-2-morpholin-4-yl-acetamide] |
| 150 nM | CN(C)C1CCN(CCCn2nc(-c3ccc(C(F)(F)F)c(CNC(=O)c4ccc(F)cc4)c3)c3c2CCN(S(C)(=O)=O)C3)C1 (stereo not shown) [Example 5, N-(5-{1-[3-(3-Dimethylamino-pyrrolidin-1-yl)-propyl]-5-methanesulfonyl-4,5,6,7-tetrahydro-1H-pyrazolo[4,3-c]pyridin-3-yl}-2-trifluoromethyl-benzyl)-4-fluoro-benzamide] |
| 330 nM | CS(=O)(=O)N1CCc2c(c(-c3ccc(C(F)(F)F)c(CNC(=O)c4ccc(F)cc4)c3)nn2CC(O)CN2CCNC(=O)C2)C1 (stereo not shown) [Example 19, 4-Fluoro-N-(5-{1-[2-hydroxy-3-(3-oxo-piperazin-1-yl)-propyl]-5-methanesulfonyl-4,5,6,7-tetrahydro-1H-pyrazolo[4,3-c]pyridin-3-yl}-2-trifluoromethyl-benzyl)-benzamide] |
| 250 nM | CS(=O)(=O)N1CCc2c(c(-c3ccc(C(F)(F)F)c(CNC(=O)c4ccccc4)c3)nn2CC(O)CN2CCCC2)C1 (stereo not shown) [Example 56, N-{5-[1-(2-Hydroxy-3-pyrrolidin-1-yl-propyl)-5-methanesulfonyl-4,5,6,7-tetrahydro-1H-pyrazolo[4,3-c]pyridin-3-yl]-2-trifluoromethyl-benzyl}-benzamide] |
| 60 nM | CC(C)=CC(=O)NCc1cc(-c2nn(CC(O)CN3CCC(C)(C)CC3)c3c2CN(S(C)(=O)=O)CC3)ccc1C(F)(F)F (stereo not shown) [Example 28, 3-Methyl-but-2-enoic acid 5-{1-[3-(4,4-dimethyl-piperidin-1-yl)-2-hydroxy-propyl]-5-methanesulfonyl-4,5,6,7-tetrahydro-1H-pyrazolo[4,3-c]pyridin-3-yl}-2-trifluoromethyl-benzylamide] |
